Results as given in paper PMC12122562, “Phase 1 studies of the indenoisoquinolines LMP776 and LMP744 in patients with solid tumors and lymphomas” (Cancer Chemotherapy and Pharmacology, 2025).
Where two headings read alike, the source gives them in different places.

How the values were obtained:
[1] = Plasma pharmacokinetics of LMP744, non-compartmental; type: in vivo, human; details: for half-life / AUC(0-inf) / AUC(0-t) / Cmax / Tmax: human, plasma, intravenous
Method: Blood was collected during cycle 1 in the LMP744 study on C1D1 at the end of infusion (EOI), then again at 0.25, 0.5, 1, 2, 4, and 6 h after EOI. Blood was also collected prior to infusion and at EOI on days 2–5 during cycle 1, then again at 1 week (168 h) after C1D1 EOI. Samples were collected in EDTA tubes with 2 mL of blood per sample. Samples were centrifuged and plasma was stored at − 70 °C. Samples were analyzed using a validated LC–MS or LC–MS/MS method for each IIQ as previously described. Plasma-time data were analyzed using WinNonlin (Pharsight, Mountain View, CA). AUC values were calculated by non-compartmental analysis and end-of-infusion concentrations were measured on days 1 and 5 of cycle 1. Sample collection and analysis of LMP776 pharmacokinetics were performed as previously described.

[2] = tested on: naturally occurring lymphomas; set-up: method as in PMID 30061364; details: canines with lymphomas; cited from earlier work
[3] = tested on: γH2AX; experiment: qIF of paired tumor biopsies: nuclear γH2AX; type: in vivo, human
From the text: The LMP744 protocol collected pre-treatment (baseline) and on-treatment paired biopsies from patients in the expansion cohort. Core needle tumor biopsies (18-gauge) were collected and flash-frozen at point of collection per NCI SOPs (https://dctd.cancer.gov/ResearchResources/biomarkers/docs/par/SOP340507_Biopsy_Frozen.pdf) as described to preserve labile post-translational modifications such as phosphorylation. Biopsy pairs were thawed in formalin, fixed in paraffin embedded together with control tissues following NCI SOP340550 (https://dctd.cancer.gov/ResearchResources/biomarkers/DDR3/SOP340550_Biopsy_Section_Testis_Jejunum_Controls.pdf). TOP1 and TOP1cc were measured with a cocktail containing custom-conjugated rabbit monoclonal antibody anti-TOP1-DIG (Abcam, EPR5376 (2)) and mouse monoclonal antibody anti-TOP1cc (clone 1.1A [34, 35], EMD Millipore) that were detected with reporter secondary antibodies AlexaFluor-647 IgG fraction monoclonal mouse anti-digoxin (Jackson ImmunoResearch) and goat/anti-mouse AlexaFluor-488, respectively. Phosphorylated KAP1 (pKAP1, phosphorylated at S824) was measured using custom-conjugated pKAP1-pS824-DNP (Abcam, EPR5248) and detected with AlexaFluor-488 conjugated with anti-dinitrophenyl-KLH rabbit IgG Antibody Fraction (DNP-488, ThermoFisher). […] TOP1, γH2AX, pNBS1, and pKAP1 were measured as the percentage of DAPI-stained tumor cell nuclear area that was positive for the biomarker (% NAP); RAD51 [19] and TOP1cc was measured as a function of the percentage of nuclei with ≥ 5 foci (RAD51) or ≥ 19 foci (TOP1cc). Apoptosis was measured using a validated IFA of tumor cells positive for both cCasp3 blebbing in the cytoplasm and γH2AX in the nucleus. Anti-SLFN11 rabbit monoclonal antibody (Cell Signaling Technology, clone D8W1B) was detected by immunohistochemistry (IHC) using Bond Polymer Detection kit (Leica) and scanned in 20X widefield Aperio (Leica), and the distribution of staining intensity of tumor cell nuclei graded as 0, 1 + , 2 + or 3 + was converted into an H-score. […]

## COc1cc2c3c(n(CCCNCCO)c(=O)c2cc1OC)-c1cc2c(cc1C3=O)OCO2 [LMP744]
[1]; DL1, 6 mg/m2, n=1
  Cl: 42.3 L/h/m2
  Vss: 1033.0 L/m2
  AUC(0-inf): 0.142 µg·h/mL
  AUC(0-t): 0.0917 µg·h/mL
  Cmax: 0.0484 µg/mL
  Tmax: 1 h
[1]; DL2, 12 mg/m2, n=1
  Cl: 74.0 L/h/m2
  Vss: 1369.0 L/m2
  AUC(0-inf): 0.162 µg·h/mL
  AUC(0-t): 0.117 µg·h/mL
  Cmax: 0.0696 µg/mL
  Tmax: 1 h
[1]; DL3, 24 mg/m2, n=3
  Cl: 77.9 (11.2) L/h/m2
  Vss: 1312.7 L/m2
  AUC(0-inf): 0.313 µg·h/mL
  AUC(0-t): 0.234 µg·h/mL
  Cmax: 0.0781 µg/mL
  Tmax: 1.6 h
[1]; DL4, 48 mg/m2, n=1
  Cl: 72.7 L/h/m2
  Vss: 828.0 L/m2
  AUC(0-inf): 0.8 µg·h/mL
  AUC(0-t): 0.632 µg·h/mL
  Cmax: 0.446 µg/mL
  Tmax: 1 h
[1]; DL5, 96 mg/m2, n=1
  Cl: 51.7 L/h/m2
  Vss: 836.6 L/m2
  AUC(0-inf): 1.86 µg·h/mL
  AUC(0-t): 1.39 µg·h/mL
  Cmax: 0.433 µg/mL
  Tmax: 1 h
[1]; DL6 (MTD), 190 mg/m2, n=16
  Cl: 59.1 (26.6) L/h/m2
  Vss: 845.0 L/m2
  AUC(0-inf): 4.65 µg·h/mL
  AUC(0-t): 3.77 µg·h/mL
  Cmax: 1.57 µg/mL
  Tmax: 1 h
[1]; DL7, 260 mg/m2, n=10
  Cl: 73.8 (35.4) L/h/m2
  Vss: 867.8 L/m2
  AUC(0-inf): 4.1 µg·h/mL
  AUC(0-t): 3.58 µg·h/mL
  Cmax: 1.51 µg/mL
  Tmax: 1 h
[1]; 6 mg/m2, DL1, 6 mg/m2, n=1, read-out: t1/2 (converted)
  half-life: 23.4 h
[1]; 12 mg/m2, DL2, 12 mg/m2, n=1, read-out: t1/2 (converted)
  half-life: 19.1 h
[1]; 24 mg/m2, DL3, 24 mg/m2, n=3, read-out: t1/2 (converted)
  half-life: 14 h
[1]; 48 mg/m2, DL4, 48 mg/m2, n=1, read-out: t1/2 (converted)
  half-life: 15.5 h
[1]; 96 mg/m2, DL5, 96 mg/m2, n=1, read-out: t1/2 (converted)
  half-life: 16.2 h
[1]; 190 mg/m2, DL6 (MTD), 190 mg/m2, n=16, read-out: t1/2 (mean half-life) (converted)
  half-life: 13.6 h
[1]; 190 mg/m2, MTD (DL6, 190 mg/m^2, n = 16), read-out: Half-life, range
  half-life: 7.2 to 23.4 h
[1]; 190 mg/m^2, patient 8, Hodgkin lymphoma, read-out: Longest drug half-life measured in this study (converted)
  half-life: 23.4 h
[1]; 260 mg/m2, DL7, 260 mg/m2, n=10, read-out: t1/2 (converted)
  half-life: 10.9 h
[1]; in vivo
  Dependence of half-life on dose: did not vary with dose level
  Systemic exposure (AUC) versus dose level: increased linearly with dose level
[2]
  Responders: 13 of 19
  Response rate: 68.4%
[3]; 6 patients at MTD, P = 0.1715
  γH2AX, cohort mean treatment effect: overall lack of treatment effect within the cohort
[3]; patient 29 (SCLC, cPR) only, MTD, C1D2 2–4 h after dosing
  Nuclear γH2AX in tumor cells on treatment: above 4 % NAP
[3]; patient with cPR
  Pharmacodynamic responses in tumor biopsies: increased RAD51, phosphorylated KAP1 (pKAP1), γH2AX, and cleaved caspase-3 (cCasp3)

## COc1cc2c3c(n(CCCn4ccnc4)c(=O)c2cc1OC)-c1cc2c(cc1C3=O)OCO2 [LMP776]
[2]
  Responders: 7 of 24
  Response rate: 29.2%
